The source of these data is paper PMC3914656 (Journal of cancer science & therapy, 2013).

The structures appear in SMILES notation. Counter-ions that a name gives are not always drawn.

The nature of data set [1]: Rat in-situ single-pass colon perfusion, effective permeability coefficient. The settings on record: N-Nitroso N-methyl urea induced colon cancer, Figure 3.
The test system of a further data set is p-gp. Description: qRT-PCR gene expression of p-gp in treated Caco-2 cells. Format: cell-based. The following applies: for expression of p-gp (qRT-PCR): Caco-2 cells, 24-hrs treatment, actin as control. (In general: Quantitative PCR measures a nucleic acid by following its amplification.)
Data set [2] is described as follows: Stability in perfusion solution. The class given is physicochemical. The settings on record: Phosphate Buffer Saline pH 7.4 with phenol red, room temperature, 6 hrs, RP-HPLC.

Consider `CCc1c2c(nc3ccc(OC(=O)N4CCC(N5CCCCC5)CC4)cc13)-c1cc3c(c(=O)n1C2)COC(=O)[C@]3(O)CC` [Irinotecan, Irinotecan Hydrochloride], for which the “permeability coefficient in cancerous colon in comparison to normal colon” value in data set [1] was “decreased”. Moreover, the “expression of p-gp (qRT-PCR)” value in the data set with p-gp was “increased”. Also, the “stability in perfusion samples” value in data set [2] is “stable”.

On to `CC(C)NCC(O)COc1cccc2ccccc12` (stereo not drawn) [propranolol], for which the “stability in perfusion samples” value in data set [2] was “stable”.

In the case of `COc1cc(/C=C/C(=O)CC(=O)/C=C/c2ccc(O)c(OC)c2)ccc1O` [curcumin], the “expression of p-gp (qRT-PCR)” value in the data set with p-gp is recorded as “significant inhibition”. Moreover, in the data set on p-gp (qRT-PCR and Western blot, curcumin treated colon cancer cells), the “decrease in the expression of p-glycoprotein (P-gp)” value is given as “about 15 fold”.
